Patent EP4497440A1, “USE OF 7-TRIFLUOROMETHYL-7ALPHA,25-DIHYDROXYCHOLESTEROL IN THE TREATMENT AND MODULATION OF AUTOIMMUNE AND INFLAMMATORY DISEASES OF THE NERVOUS SYSTEM AND NEURODEGENERATIVE DISEASES” (Gdanski Uniwersytet Medyczny, priority 2023, dated 2025)

Columns and labels:
[1] = system: mice in the cuprizone model; experiment: Cuprizone model: luxol fast blue staining, lipoprotein (myelin) density in the corpus callosum; type: in vivo; conditions: 20 mg/kg subcutaneously once a day for 2 weeks after 9 weeks of cuprizone (group #5), compared to vehicle group #3
Excerpt: Measurement of lipoprotein density in myelin sheaths, taken on sections of brains of the mice in the cuprizone model. The mice in the cuprizone model subject were divided into 6 groups: • #1. control group: regular cuprizone-free chow for 9 weeks. The mice were euthanised after 9 weeks and tissue samples were taken for analysis. In these mice no removal of myelin sheaths occurred. • #2. control group with cuprizone: chow containing cuprizone for 9 weeks. The mice were euthanised after 9 weeks and tissue samples were taken for analysis. In the mice fed with chow containing cuprizone myelin sheaths were removed. • #3. vehicle control group - the mice were fed with chow containing cuprizone for 9 weeks, and then with regular chow without cuprizone for 2 weeks. Over the 2 weeks on regular show the mice in the vehicle control group were first injected with vehicle #1: DMSO, intraperitoneally, 150 µl once a day, and then with vehicle #2: canola oil, subcutaneously, 150 µl once a day. • #4. barbadin control group - the mice were fed with chow containing cuprizone for 9 weeks and then with regular chow without cuprizone for 2 weeks. Over the 2 weeks on regular chow the mice in this group were injected with barbadin 0.3 mg/kg, intraperitoneally, 150 µl once a day and then with vehicle #2: canola oil, subcutaneously, 150 µl once a day. • #5. oxysterol experimental group - the mice were fed with chow containing cuprizone for 9 weeks and then with regular chow without cuprizone for 2 weeks. […] Brain sections sampled from the mice were histochemically stained with luxol fast blue (Abcam, cat. No. Ab 150675), and the intensity (density) of the lipid staining in the corpus callosum was measured using the ImageJ software (ImageJ (nih.gov)). […]

lymphocytes = experiment: Short-term pharmacology model: blood count after a single injection; type: in vivo, mice; conditions: single subcutaneous injection
Protocol: Mouse groups in the short-term pharmacology model (Fig 10): Control: one vehicle injection (canola oil). The number of lymphocytes in the group is marked on the graph with the transverse line. The vehicle injection was administered to the mice subcutaneously (100 µl), following which the mice were euthanized after 6 hours (8 mice), 12 hours (8 mice), 24 hours (8 mice), or 48 hours (8 mice).
The 0.8 mg/kg dose group: single injection with CF3-7α,25OHC at the dose of 0.8 mg/kg. The oxysterol injection was administered to the mice subcutaneously (100 µl), following which the mice were euthanized after 6 hours (8 mice), 12 hours (8 mice), 24 hours (8 mice), or 48 hours (8 mice).
The 4 mg/kg dose group: single injection with CF3-7α,25OHC at the dose of 4 mg/kg. The oxysterol injection was administered to the mice subcutaneously (100 µl), following which the mice were euthanized after 6 hours (8 mice), 12 hours (8 mice), 24 hours (8 mice), or 48 hours (8 mice).
The 20 mg/kg dose group: a single injection with CF3-7α,25OHC at the dose of 20 mg/kg. The oxysterol injection was administered to the mice subcutaneously (100 µl), following which the mice were euthanized after 6 hours (8 mice), 12 hours (8 mice), 24 hours (8 mice), or 48 hours (8 mice).
The 100 mg/kg dose group: a single injection with CF3-7α,25OHC at the dose of […]. […]

Structure (SMILES): C[C@H](CCCC(C)(C)O)[C@H]1CC[C@H]2[C@H]3[C@H](CC[C@]12C)[C@@]1(C)CC[C@H](O)CC1=C[C@]3(O)C(F)(F)F [CF3-7α,25OHC, cholestene-7β-trifluoromethyl,3β,7α,25-triol]
- lipoprotein density in the corpus callosum, higher by [1]: 16%
- myelin density / myelin regeneration in the corpus callosum [1]: increased
- myelin density / myelin regeneration in the corpus callosum ([1]; listed as CF3-7α25OHC): more efficient (or faster) myelin regeneration
- duration of the lymphocyte-reducing effect following administration (lymphocytes): 24 h
- lowest dose that reduces the level of lymphocytes (lymphocytes; doses 0.8, 4, 20, 100 mg/kg, blood count after 6, 12, 24 or 48 hours): 4 mg/kg
